Test [1] concerns the target T1, Src-YEEI (Homo sapiens, UniProt P12931). Type of test: biochemical.
The target of test [2] is T1, Src-YEEI. Type of test: biochemical. The source holds these as a separate data set.
The target in test [3] is T1, Src-YEEI. The class given is biochemical. The following applies: read-out: IC50, Src-YEEI alone, ADP Quest.
In test [4] the target is T2, Src-YEEI:pFAK peptide complex (Homo sapiens, UniProt P12931). Put plainly: Z'Lyte end-point in vitro kinase assay, Src-YEEI in presence of pFAK peptide. The following applies: compound 10 μM; Z'Lyte library screen. The class given is biochemical.
For test [5], the system named is Src-YEEI:pFAK peptide complex. Described as above. The class given is biochemical, human. To be noted: ratio of the IC50 values for Src-YEEI:pFAK peptide complex and Src-YEEI alone, Z'Lyte.
For test [6], the target named is T1, Src-YEEI. Type of test: biochemical. This is another data set of the same source.
The target of test [7] is T2, Src-YEEI:pFAK peptide complex. The class given is biochemical. To be noted: read-out: IC50, Src-YEEI + pFAK, ADP Quest.
In test [8] the test system is Src-YEEI:pFAK peptide complex. The class given is biochemical, human. The following applies: ratio of the IC50 values for Src-YEEI:pFAK peptide complex and Src-YEEI alone, ADP Quest.

Like-named read-outs stand apart in the source and are kept apart here. Square brackets hold non-standard residues; d marks the D form. Ends that are not written are not given here. pY = N[C@@H](Cc1ccc(OP(=O)(O)O)cc1)C(=O)O

For “AAAARALPSIPKLAN NEKQGVRSHTVSVSETDDY^PAEIID (AAAARALPSIPKLANNEKQGVRSHTVSVSETDD[pY]AEIID) [pFAK]”, the “percent of maximal activation of Src-YEEI” value in the test with Src-YEEI [1] was found to be 40%. Moreover, in the test with Src-YEEI [2], the “rate of ADP production by Src-YEEI in presence of peptide” value came out at 1.0 pmol ADP produced/min.

For `COc1ccc(N(C(=O)Oc2c(C)cccc2C)c2ccnc(Nc3ccc(N4CCN(C)CC4)cc3)n2)c(OC)c1` [WH-4-023], the IC50 on Src-YEEI [3] came out at 0.019 µM; on Src-YEEI [6] (read-out: IC50, Src-YEEI alone, Z'Lyte), 1.28 µM; in test [7] it was 0.025 µM. The “percent inhibition of Src-YEEI:pFAK peptide complex in the screening assay” value in test [4] was “more than 70%”. In addition, the “Selectivity ratio, Z'Lyte” value in test [5] was determined as 0.94. The “percent inhibition of Src-YEEI alone in the screening assay” value at Src-YEEI [6] (10 µM) is “more than 70%”. For the same molecule, the “Selectivity ratio, ADP Quest” value in test [8] was found to be 0.76.

By IC50 is commonly meant the point on the concentration scale where inhibition reaches its midpoint.

These data come from paper PMC4444405 (Chemical biology & drug design, 2014).
